The record followed here is patent US8785160B2, “Prebiotic formulations and methods of use” (Ritter Pharmaceuticals, Inc., priority 2009, dated 2014).

The subject of this assay is Bifidobacterium species. Briefly: Comparative growth of Bifidobacterium species and strains on 2% carbohydrate in scratch MRS. The format is cell-based. The settings on record: scratch MRS + 2% carbohydrate, 37 C.

Regarding `OC[C@H]1O[C@@H](O[C@H]2[C@H](O)[C@@H](O)C(O)O[C@@H]2CO)[C@H](O)[C@@H](O)[C@H]1O` (stereo partly shown) [lactose], the “comparative growth of Bifidobacterium species on four carbohydrate sources (glucose, lactose, GOS1, GOS2)” value is given as “none of the Bifidobacterium strains used in these experiments grew on lactose”.
